Measurements published in patent publication US10188667B2, “Pharmaceutical compositions and methods of use of 4-pregenen-11β-17-21-triol-3,20-dione derivatives” (ALLERGAN, INC., priority 2011, dated 2019).

Columns and labels:
GAL4(DBD)-MR(LBD) = GAL4(DBD)-MR(LBD) (Homo sapiens (Human), UniProt P08235); assay: Mineralocorticoid receptor transactivation, UAS-bla HEK 293T CELLSENSOR reporter assay, agonist mode; type: cell-based; details: for % Activation at 100 nM: control compound aldosterone; for EC50: 16 hours incubation, maximum concentration 100 nM, read-out: EC50 (nM) MR (Table 4: mineralocorticoid receptor potency)
Procedure: Mineralocorticoid receptor (MR) activation potency was assessed using a HEK 293T cell line containing the UAS-bla reporter (UAS-bla HEK 293T CELLSENSOR®). This cell line was stably cotransfected with an expression construct containing β-lactamase cDNA under control of the GAL4 Upstream Activator Sequence (UAS) and another expression construct encoding for the fusion protein GAL4(DBD)-MR(LBD). […] All assays were performed as 10-point dose responses using a half log-fold dilution series starting with a maximum compound concentration of 100 nM. The compounds were incubated for 16 hours. The activation of the fusion protein GAL4(DBD)-MR(LBD) leads to expression of the reporter β-lactamase which is detected by the conversion of a FRET substrate in a ratiometric assay format. This functional assay allows for measurement of receptor agonism by compounds and can be used to determine compound potency and selectivity. Assay reproducibility was determined by calculating Z′ values for untreated versus maximum stimulation. The Z′ value was greater than 0.6, indicating good reproducibility of the assay format.

[1] = biological target: Glucocorticoid receptor (GR) (Homo sapiens (Human), UniProt P04150); assay: Glucocorticoid receptor transactivation, MMTV-bla HeLa CELLSENSOR reporter assay, agonist mode; type: cell-based; details: for % Activation at 100 nM: control compound dexamethasone; for EC50: 5 hours incubation, maximum concentration 100 nM
[2] = patients; eye drops; compared to synthetic GCs such as dexamethasone, prednisolone, fluorometholone; cited from earlier work

Sequence of GAL4(DBD)-MR(LBD) (P08235 726-964): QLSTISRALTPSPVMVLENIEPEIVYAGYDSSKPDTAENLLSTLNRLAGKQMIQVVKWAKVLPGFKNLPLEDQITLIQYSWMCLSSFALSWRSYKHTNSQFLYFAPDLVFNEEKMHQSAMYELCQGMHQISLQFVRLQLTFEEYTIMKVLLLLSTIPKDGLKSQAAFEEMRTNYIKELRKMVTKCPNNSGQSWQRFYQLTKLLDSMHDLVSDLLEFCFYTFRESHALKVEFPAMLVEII
Sequence of Glucocorticoid receptor (GR) (P04150 whole entry): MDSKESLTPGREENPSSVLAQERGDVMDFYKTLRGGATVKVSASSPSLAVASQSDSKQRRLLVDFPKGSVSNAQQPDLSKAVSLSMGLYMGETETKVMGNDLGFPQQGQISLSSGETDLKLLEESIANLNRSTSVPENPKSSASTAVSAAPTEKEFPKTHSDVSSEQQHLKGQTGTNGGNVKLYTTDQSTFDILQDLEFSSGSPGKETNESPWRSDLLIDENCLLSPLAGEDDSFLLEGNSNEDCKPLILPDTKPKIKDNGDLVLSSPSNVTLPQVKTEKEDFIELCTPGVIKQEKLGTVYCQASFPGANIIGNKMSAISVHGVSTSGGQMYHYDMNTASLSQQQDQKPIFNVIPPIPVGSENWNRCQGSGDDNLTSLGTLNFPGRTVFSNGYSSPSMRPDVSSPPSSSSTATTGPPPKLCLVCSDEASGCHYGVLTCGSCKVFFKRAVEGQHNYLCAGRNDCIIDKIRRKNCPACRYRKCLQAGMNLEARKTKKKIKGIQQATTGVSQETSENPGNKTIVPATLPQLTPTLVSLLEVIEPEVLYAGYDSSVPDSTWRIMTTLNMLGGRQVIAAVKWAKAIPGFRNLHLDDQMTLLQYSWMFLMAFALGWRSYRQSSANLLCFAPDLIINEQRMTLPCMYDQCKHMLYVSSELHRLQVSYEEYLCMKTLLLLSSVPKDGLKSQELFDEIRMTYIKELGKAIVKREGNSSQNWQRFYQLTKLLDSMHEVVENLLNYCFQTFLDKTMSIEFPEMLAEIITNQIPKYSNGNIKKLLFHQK

Compound | % Activation at 100 nM (GAL4(DBD)-MR(LBD)) [%] | EC50 (GAL4(DBD)-MR(LBD)) [nM] | % Activation at 100 nM [1] [%] | EC50 [1] [nM] | effect on intraocular pressure [2]
CCCCCCC(=O)O[C@]1(C(=O)CO)CC[C@H]2[C@@H]3CCC4=CC(=O)CC[C@]4(C)[C@H]3[C@@H](O)C[C@@]21C [drawing 26] | 72 | 5.27 | – | – | –
C[C@]12CCC(=O)C=C1CC[C@@H]1[C@@H]2[C@@H](O)C[C@@]2(C)[C@H]1CC[C@]2(OC(=O)C1CCCC1)C(=O)CO [drawing 31] | 27 | > 100 | – | – | –
CCCCCC(=O)O[C@]1(C(=O)CO)CC[C@H]2[C@@H]3CCC4=CC(=O)CC[C@]4(C)[C@H]3[C@@H](O)C[C@@]21C [drawing 14] | – | – | 65 | 3.25 | –
C[C@]12CCC(=O)C=C1CC[C@@H]1[C@@H]2[C@@H](O)C[C@@]2(C)[C@H]1CC[C@]2(OC(=O)Cc1ccccc1)C(=O)CO [drawing 22] | 81 | 2.85 | – | – | –
CCCCCCC(=O)O[C@]1(C(=O)CO)CC[C@H]2[C@@H]3CCC4=CC(=O)CC[C@]4(C)[C@H]3[C@@H](O)C[C@@]21C [drawing 29] | 56 | 9.29 | – | – | –
C[C@]12CCC(=O)C=C1CC[C@@H]1[C@@H]2[C@@H](O)C[C@@]2(C)[C@H]1CC[C@]2(O)C(=O)CO [drawing 18] | – | – | 43 | – | –
C[C@]12CCC(=O)C=C1CC[C@@H]1[C@@H]2[C@@H](O)C[C@@]2(C)[C@H]1CC[C@]2(OC(=O)c1ccccc1)C(=O)CO [drawing 12] | – | – | 85 | 1.41 | –
CCCCCCC(=O)O[C@]1(C(=O)CO)CC[C@H]2[C@@H]3CCC4=CC(=O)CC[C@]4(C)[C@H]3[C@@H](O)C[C@@]21C [drawing 19] | – | – | 15 | > 100 | –
CCCC(=O)O[C@]1(C(=O)CO)CC[C@H]2[C@@H]3CCC4=CC(=O)CC[C@]4(C)[C@H]3[C@@H](O)C[C@@]21C [drawing 24] | 77 | 2.94 | – | – | –
CCCC(=O)O[C@]1(C(=O)CO)CC[C@H]2[C@@H]3CCC4=CC(=O)CC[C@]4(C)[C@H]3[C@@H](O)C[C@@]21C [drawing 13] | – | – | 86 | 1.97 | –
C[C@]12CCC(=O)C=C1CC[C@@H]1[C@@H]2[C@@H](O)C[C@@]2(C)[C@H]1CC[C@]2(OC(=O)Cc1ccccc1)C(=O)CO [drawing 20] | – | – | 5 | > 100 | –
CCC(=O)O[C@]1(C(=O)CO)CC[C@H]2[C@@H]3CCC4=CC(=O)CC[C@]4(C)[C@H]3[C@@H](O)C[C@@]21C [drawing 25] | 76 | 3.17 | – | – | –
CC(C)C(=O)O[C@]1(C(=O)CO)CC[C@H]2[C@@H]3CCC4=CC(=O)CC[C@]4(C)[C@H]3[C@@H](O)C[C@@]21C [drawing 17] | – | – | 84 | 7.07 | –
C[C@]12CCC(=O)C=C1CC[C@@H]1[C@@H]2[C@@H](O)C[C@@]2(C)[C@H]1CC[C@]2(O)C(=O)CO [cortisol] | – | – | – | – | minimal effect on intraocular pressure
C[C@]12CCC(=O)C=C1CC[C@@H]1[C@@H]2[C@@H](O)C[C@@]2(C)[C@H]1CC[C@]2(OC(=O)c1ccccc1)C(=O)CO [drawing 28] | 62 | 7.46 | – | – | –
CCC(=O)O[C@]1(C(=O)CO)CC[C@H]2[C@@H]3CCC4=CC(=O)CC[C@]4(C)[C@H]3[C@@H](O)C[C@@]21C [drawing 16] | – | – | 85 | 6.31 | –
C[C@]12CCC(=O)C=C1CC[C@@H]1[C@@H]2[C@@H](O)C[C@@]2(C)[C@H]1CC[C@]2(O)C(=O)CO [drawing 23] | 75 | 2.9 | – | – | –
C[C@]12CCC(=O)C=C1CC[C@@H]1[C@@H]2[C@@H](O)C[C@@]2(C)[C@H]1CC[C@]2(OC(=O)C1CCCC1)C(=O)CO [drawing 11] | – | – | 88 | 1.35 | –
CC(C)C(=O)O[C@]1(C(=O)CO)CC[C@H]2[C@@H]3CCC4=CC(=O)CC[C@]4(C)[C@H]3[C@@H](O)C[C@@]21C [drawing 30] | 62 | 15.6 | – | – | –
CCCCCCC(=O)O[C@]1(C(=O)CO)CC[C@H]2[C@@H]3CCC4=CC(=O)CC[C@]4(C)[C@H]3[C@@H](O)C[C@@]21C [drawing 15] | – | – | 47 | 6.04 | –
CCCCCC(=O)O[C@]1(C(=O)CO)CC[C@H]2[C@@H]3CCC4=CC(=O)CC[C@]4(C)[C@H]3[C@@H](O)C[C@@]21C [drawing 27] | 64 | 5.68 | – | – | –
